Here are results for one compound from patent publication US20240002425A1, “NOVEL AMINOALKYL GLUCOSAMINIDE 4-PHOSPHATE DERIVATIVE” (DAIICHI SANKYO COMPANY, LIMITED, priority 2020, published 2024).

Common to all, as to assay type: in vivo, mouse
In experiment [1] the test system is Japanese cedar pollen antigen (Cry j 1). Briefly: Immunostimulatory effect on Japanese cedar pollen antigen by sublingual administration (anti-Cry j 1 IgG or IgA). To be noted: sublingual with Japanese cedar pollen antigen. How it is done:
The compound described in Example 24 was used to study its immunostimulatory effect on a Japanese cedar pollen antigen by sublingual administration.
Allergen sensitization was performed by subcutaneously administering 50 μL of Japanese cedar pollen antigen extracts (allergen scratch extracts “Torii” Japanese cedar pollen, Torii Pharmaceutical Co., Ltd.) to the mouse tail root 3 and 1 weeks before the start of sublingual administration. Blood was collected 4 days after the second sensitization, and anti-Cry j 1 IgG was measured in accordance with the subsequent section. Mice were grouped such that their measured values were evenly distributed among the groups. Sublingual administration (sublingual allergen immunotherapy model) was started from 3 days thereafter.
The antigen used was a Japanese cedar pollen antigen (5000 JAU CEDARCURE®, Torii Pharmaceutical Co., Ltd.) dissolved in 100 μL of PBS. The compound of Example 24 was dissolved in injectable water (Otsuka Pharmaceutical Co., Ltd.) to prepare a 5 mg/mL solution. The antigen and the compound of Example 24 were mixed in equal amounts immediately before administration.
Each mouse was allowed to refrain from eating and drinking from 1 hour before sublingual administration. […]
25 μL of 10 μg/mL ImmunoPure Streptavidin (Thermo Fisher Scientific Inc., Cat No. 21125) was added to each well of 96 Well Micro Plate (Corning, Inc., Cat No. 3690), which was then left standing overnight at 4° C. […] The plate was left standing at room temperature for 10 minutes, and 30 μL of TMB Stop Solution was then added to each well, followed by the measurement of absorbance at 450 nm.
Positive serum was used as a standard specimen of serum, and anti-Cry j 1 IgG or IgA contained therein was set to 1000 units/mL. […] An evaluation specimen was diluted 1000-fold with an ELISA solution and measured, and the unit value of anti-Cry j 1 IgG or IgA in the evaluation specimen was determined using the calibration curve. […]

Experiment [2] relates to cervical lymph node immune cells. Briefly: Cry j 1-specific cell-mediated immunity assay (cervical lymph node cells). Particulars: cervical lymph node cells after sublingual administration with Japanese cedar pollen antigen. Details: IFN-7 produced by Cry j 1 stimulation / IL-4 produced by Cry j 1 stimulation: unit not given here. As for the experimental part: Cervical lymph node was collected, then pooled for each group, and ground in PBS (1% BSA). The resultant was passed through a 70 μm strainer. […] Cells were recovered with RPMI/FBS/ps, and the number of cells was prepared to 2×5×10^6 cells/mL.

For experiment [3], the system named is mast cell degranulation reaction mediated by anti-Cry j 1 IgE. Briefly: Suppression of mast cell degranulation by immune serum-derived IgG. To be noted: IgG from serum of SLIT mice, 200 ng/mL Cry j 1 stimulation; vs No-SLIT and Japanese Cedar Pollen SLIT groups (FIG. 17). As for the experimental part: IgG was purified from 200 μL of serum of each mouse individual of the allergen immunotherapy model in accordance with the protocol of Protein G HP spin trap (Cytiva, 28-9031-34). The solvent in the purified IgG was replaced with 50 μL of Tyrode's solution using Vivaspin 500, 10 kDa MWCO Polyethersulfone (Cytiva, 28-9322-25). Cry j 1 (2×10×200 ng/mL, 1.5 μL, Tyrode's solution) was added to the purified IgG (13.5 μL, Tyrode's solution), and the mixture was left standing at room temperature for 1 hour in the dark. The mast cells sensitized with anti-Cry j 1 IgE were treated with 10 μL of this specimen as a test substance, and the amount of the mast cell degranulation was measured (final concentration: 200 ng/mL, Cry j 1 stimulation).

On to `CCCCCCCCCCC[C@H](CC(=O)N[C@@H](CO[C@@H]1O[C@H](CO[C@]2(C(=O)O)C[C@@H](O)[C@@H](O)[C@@H]([C@H](O)CO)O2)[C@@H](OP(=O)(O)O)[C@H](OC(=O)C[C@@H](CCCCCCCCCCC)OC(=O)CCCCCCCCC)[C@H]1NC(=O)C[C@@H](CCCCCCCCCCC)OC(=O)CCCCCCCCC)CC(=O)O)OC(=O)CCCCCCCCC.CNC[C@H](O)[C@@H](O)[C@H](O)[C@H](O)CO.CNC[C@H](O)[C@@H](O)[C@H](O)[C@H](O)CO.CNC[C@H](O)[C@@H](O)[C@H](O)[C@H](O)CO.CNC[C@H](O)[C@@H](O)[C@H](O)[C@H](O)CO` [Example 24, Tetrameglumine (3R)-3-{[(3R)-3-(decanoyloxy)tetradecanoyl]amino}-4-({3-O-[(3R)-3-(decanoyloxy)tetradecanoyl]-2-{[(3R)-3-(decanoyloxy)tetradecanoyl]amino}-2-deoxy-6-O-(3-deoxy-α-D-manno-oct-2-ulopyranonosyl)-4-O-phosphono-β-D-glucopyranosyl}oxy)butanoate], for which the “anti-Cry j 1 IgA in nasal wash” value in experiment [1] (5 weeks (FIG. 11)) is given as “induced at a high level”. In addition, the “anti-Cry j 1 IgG in serum” value in experiment [1] (vs No-SLIT and Japanese Cedar Pollen SLIT groups (FIG. 9)) is “induced at a higher level”. Further, the “anti-Cry j 1 IgA in serum” value in experiment [1] (vs No-SLIT and Japanese Cedar Pollen SLIT groups (FIG. 10)) is reported as “induced at a higher level”. In experiment [2] (44 hours culture (FIG. 12)), the “IL-10 produced by Cry j 1 stimulation” value is reported as “strongly induced”. Besides, the “IFN-7 produced by Cry j 1 stimulation” value in experiment [2] (44 hours culture (FIG. 13)) is on record as no more than 9.77. Besides, the “IL-4 produced by Cry j 1 stimulation” value in experiment [2] (44 hours culture (FIG. 14)) is no more than 9.77. In addition, the “mast cell degranulation with IgG purified from mouse serum” value in experiment [3] was “suppressed”.
